# From US8563027B2, “Drug delivery through hydrogel plugs” (Incept, LLC, priority 2009, dated 2013)
# Like-named read-outs stand apart in the source and are kept apart here.
# Assays:
# [1] = cited from earlier work
# [2] = In vitro release of steroids entrapped in hydrogel compared to free drug in PBS; assay type: physicochemical; details: 9% 4a20KSG hydrogel, FIG. 20
# Experimental: A 9% 4a20KSG hydrogel was prepared incorporating three different steroids (flunisolide, budesonide, and triamcinolone acetonide).
structure (smiles),measurement,setting,value
Cc1ccc(-c2cc(C(F)(F)F)nn2-c2ccc(S(N)(=O)=O)cc2)cc1 [Celecoxib],Solubility,[1],0.005 mg/mL
O=C(O)c1cc(-c2ccc(F)cc2F)ccc1O [Diflunisal],Solubility,[1]; pH 7,3.43 mg/ml @ pH 7
CCc1cccc2c3c([nH]c12)C(CC)(CC(=O)O)OCC3 (stereo not shown) [Etodolac],Solubility,[1]; in water,Insoluble in water
CC(C(=O)[O][Ca][O]C(=O)C(C)c1cccc(Oc2ccccc2)c1)c1cccc(Oc2ccccc2)c1 (stereo not shown) [Fenoprofen Calcium],Solubility,[1]; in water,Slightly soluble in water
CC(C(=O)O)c1ccc(-c2ccccc2)c(F)c1 (stereo not shown) [Flurbiprofen],Solubility,[1],0.9 mg/mL
CC(C)Cc1ccc(C(C)C(=O)O)cc1 (stereo not shown) [Ibuprofen],Solubility,[1]; pH 7,10 mg/ml @ pH 7
COc1ccc2c(c1)c(CC(=O)O)c(C)n2C(=O)c1ccc(Cl)cc1 [Indomethacin],Solubility,"[1]; pH 7, Form I",0.54 mg/mL
same,Solubility,"[1]; pH 7, Form II",0.80 mg/mL
O=C(c1ccccc1)c1ccc2n1CCC2C(=O)O (stereo not shown) [Ketorolac],Solubility,[1]; in IPB,10.5 mg/mL
CC(C)OC(=O)CCC/C=C\C[C@@H]1[C@@H](CC[C@@H](O)CCc2ccccc2)[C@H](O)C[C@@H]1O [Latanoprost],Solubility in aqueous solutions,[1],relatively low solubility
Cc1ccc(Cl)c(Nc2ccccc2C(=O)[O-])c1Cl.[Na+] [Meclofenamate sodium],Solubility,[1]; pH 7.2,<50 μg/mL @ pH 7.2 50 mg/mL @ pH 9.0
same,Solubility,[1]; pH 9.0,<50 μg/mL @ pH 7.2 50 mg/mL @ pH 9.0
Cc1cccc(Nc2ccccc2C(=O)[O-])c1C.[Na+] [Mefanamic Acid],Solubility,[1]; pH 7.1,40 μg/ml @ pH 7.1
COc1c(N2C[C@@H]3CCCN[C@@H]3C2)c(F)cc2c(=O)c(C(=O)O)cn(C3CC3)c12 [Moxifloxacin],Solubility in aqueous solutions,[1],readily soluble
NC(=O)Cc1cccc(C(=O)c2ccccc2)c1N [Nepafenac],Solubility,[1],<1 mg/ml (The drug is available as 0.1% suspension)
CC1(C)O[C@@H]2C[C@H]3[C@@H]4C[C@H](F)C5=CC(=O)C=C[C@]5(C)[C@H]4[C@@H](O)C[C@]3(C)[C@]2(C(=O)CO)O1 [flunisolide],Release profile in hydrogel compared to free drug in PBS,[2],slower more sustained drug release profile
